Biological target: T1, CYP2C19 (Homo sapiens, UniProt P33261)
T1 construct: from tissue; host or cells: human liver microsomes
Experiment: Inhibition of human liver microsomal CYP2C19
Type: in vitro ADME
Conditions: human liver microsomes, 10 μM test substance; read-out: Relative inhibition rate (%) CYP2C19
Description: Experimental purpose: The inhibitory effects of the test compounds on the major metabolizing enzymes CYP1A2, CYP2C19, CYP2D6 and CYP3A4 in microsomes were evaluated using the human liver microsomal system. Experimental method: The test substance was incubated with a suspension of human liver microsomes containing cytochrome P450 enzymes CYP1A2, CYP2C19, CYP2D6 and CYP3A4 at a concentration of 10 μM in the final incubation system. The known substrates were metabolized by the corresponding single enzymes to generate specific metabolites, and the metabolites were determined by UPLC-MS/MS method. The relative inhibition rate (%) was calculated by the percentage reduction of metabolite production by the test compound and solvent DMSO in the same time period. N is the concentration value of the probe substrate metabolite and it is assumed that the […] with or without inhibitor at 0 min is 0. N+inh is the metabolite concentration in the group with inhibitor, and Nveh is the metabolite concentration in the group without inhibitor. The results of the inhibition test of the compounds of the present invention on human liver microsomal CYP enzymes are shown in Table C.

T1 sequence (P33261 whole entry): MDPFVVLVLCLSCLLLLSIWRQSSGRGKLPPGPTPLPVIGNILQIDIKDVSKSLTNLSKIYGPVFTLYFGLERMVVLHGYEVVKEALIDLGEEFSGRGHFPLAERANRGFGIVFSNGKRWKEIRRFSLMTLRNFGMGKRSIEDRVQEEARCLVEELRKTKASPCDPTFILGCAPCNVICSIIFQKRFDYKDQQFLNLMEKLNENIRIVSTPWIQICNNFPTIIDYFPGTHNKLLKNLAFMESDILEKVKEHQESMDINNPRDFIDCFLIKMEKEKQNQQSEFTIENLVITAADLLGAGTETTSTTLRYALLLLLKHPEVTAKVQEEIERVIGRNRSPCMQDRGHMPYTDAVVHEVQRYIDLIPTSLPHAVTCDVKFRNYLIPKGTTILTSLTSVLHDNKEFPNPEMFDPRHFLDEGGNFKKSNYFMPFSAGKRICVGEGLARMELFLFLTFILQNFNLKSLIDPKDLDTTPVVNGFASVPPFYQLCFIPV

| inhibition at 10 µM [%] | Compound |
| --- | --- |
| 9.7 | C=CCCN(C)Cc1c[nH]c(=O)cc1-c1ccc2c(N[C@@](C)(CO)CCCC)nc(N)nc2c1 [Example 35] |
| 10.5 | CCCC[C@](C)(CO)Nc1nc(N)nc2cc(-c3cc(=O)[nH]cc3CN(C)CCOC)cnc12 [Example 21] |
| 30.5 | CCCCN(C)Cc1c[nH]c(=O)cc1-c1cnc2c(N[C@@](C)(CO)CCCC)nc(N)nc2c1 [Example 28, (R)-4-(2-Amino-4-((1-hydroxy-2-methylhexan-2-yl)amino)pyrido[3,2-d]pyrimidin-7-yl)-5-((butyl(methyl)amino)methyl)pyridin-2(1H)-one] |
| 9.3 | CCCC[C@](C)(CO)Nc1nc(N)nc2cc(-c3cc(=O)n(C)cc3CN3CCCCC3)ccc12 [Example 8] |

From patent publication US20250163051A1, “PYRIMIDO AROMATIC RING COMPOUND AND USE THEREOF IN DRUG” (SUNSHINE LAKE PHARMA CO., LTD., priority 2022, published 2025)
